US20030236175A1, “Process for well fluids base oil via metathesis of alpha-olefins” (priority 2002, published 2003)

Test system: leptocheirus plumulosus
Assay type: in vivo
Description: This protocol uses leptocheirus plumulosus in a 10-day sediment toxicity test using a reference standard C16-18 IO (internal olefin) (sometimes also designated as C16-C18 IO, C1618 IO, or C16-18 IO) having approximately 65% C16 and 35% C18 olefin.

In the case of `CCCCCCCCC=CCCCCCCCC` [Example 11, 9-octadecene], the “Toxicity, mg/kg” value (LC50, 10-day sediment toxicity test, leptocheirus plumulosus) was 11,279 mg/kg and the Toxicity ratio (ratio of LC50 values, sample vs reference standard C16-18 IO (Equation 1), passing <= 1.0) was 0.63.
